# Data taken from patent publication US10968232B2 (Merck Sharp & Dohme Corp., priority 2016, dated 2021).
# Biological target: T1, human GPR40 (Homo sapiens, UniProt O14842)
# T1 construct: expressed in transfected cells
# Test: Inositol Phosphate Turnover (IP1) Assay
# Format: cell-based
# Details: HEK cells stably expressing human GPR40; CisBio IP-One kit; 60 minutes at 37 degrees; read-out: Human IP1 EC50
# Description: Human GPR40 stable cell-lines were generated in HEK cells. The expression plasmids were transfected using lipofectamine (Life Technologies) following manufacturer's instructions. Stable cell-lines were generated following drug selection and single cell cloning. The assay was performed in 384-well format. HEK cells stably expressing human GPR40 were plated at 7500 cells per well in growth medium (DMEM/10% fetal calf serum). Cell plates were then incubated 16 hours at 37 degrees in a 5% CO2 incubator. Measurement of Inositol Phosphate Turnover (IP1) was performed using the CisBio IP-One kit (Part number 62IPAPEB). After the 16 hour incubation, the growth media was removed by centrifugation using the BlueWasher (AusWasher GUI Ver. v1.0.1.8) Protocol #21-“Light Dry” and 10 ul of stimulation buffer (prepared as described in the kit) was added to each well. In a separate plate, compounds were diluted in DMSO (200-fold over the final concentration in the assay well) and 50 nl was acoustically transferred to the appropriate well in the assay cell plate. The plates were then incubated for 60 minutes at 37 degrees in a 5% CO2 incubator. 10 ul of detection buffer (also prepared as described in the IP-One kit) was added to each well and the plates were incubated at room temperature for 60 minutes in the dark. The plates were then read in a Perkin Elmer EnVision or equivalent reader able to measure FRET. […] Data was normalized to % activity using a reference compound and EC50s determined using a standard 4-parameter fit.
# T1 sequence (O14842 whole entry): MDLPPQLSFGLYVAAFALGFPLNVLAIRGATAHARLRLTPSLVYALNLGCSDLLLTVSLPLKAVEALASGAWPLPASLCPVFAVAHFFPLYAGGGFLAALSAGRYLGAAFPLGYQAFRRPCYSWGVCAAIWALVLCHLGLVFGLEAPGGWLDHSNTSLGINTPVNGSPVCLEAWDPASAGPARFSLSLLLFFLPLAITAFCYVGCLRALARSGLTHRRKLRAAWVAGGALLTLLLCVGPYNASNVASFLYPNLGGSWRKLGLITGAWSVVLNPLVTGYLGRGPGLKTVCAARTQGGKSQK
row,SMILES,EC50 [nM]
1,"C[C@H](C(=O)O)[C@H](c1ccc2c(c1)OC1(CC2)[C@@H]2CC[C@H]1CN([C@H](C)c1cc(F)ccc1C(F)(F)F)C2)C1CC1 (stereo partly drawn) [Example 84, (2S,3R)-3-cyclopropyl-3-((1R,5S)-3-((R)-1-(5-fluoro-2-(trifluoro-methyl)phenyl)ethyl)-3-azaspiro[bicyclo[3.2.1]oc-tane-8,2′-chroman]-7′-yl)-2-methylpropanoic acid]",28.5
2,"COc1cc(N2CCC3(CCc4ccc([C@H](C5CC5)[C@H](C)C(=O)O)cc4O3)CC2)c(Cl)cn1 [Example 55, (2S,3R)-3-(1′-(5-chloro-2-methoxypyridin-4-yl)spiro[chroman-2,4′-piperidin]-7-yl)-3-cyclopropyl-2-methylpropanoic Acid]",7.59
3,"CC(c1cc(-c2ccoc2)ccc1OC(F)(F)F)N1CCC2(CCc3ccc([C@H](C4CC4)[C@H](C)C(=O)O)cc3O2)CC1 (single isomer, unassigned) [Example 117, (2S,3R)-3-cyclopropyl-3-(1′-((R or S)-1-(5-(furan-3-yl)-2-(trifluoro-methoxy)-phenyl)ethyl)spiro[chroman-2,4′-piperidin]-7-yl)-2-methylpropanoic acid]",36.9
4,"CC(c1cc(C(F)(F)F)ccc1C1CC1)N1CCC2(CCc3ccc([C@H](C4CC4)[C@H](C)C(=O)O)c(F)c3O2)CC1 (single isomer, unassigned) [Example 14, sodium (2S,3R)-3-cyclo-propyl-3-(1′-((S or R)-1-(2-cyclopropyl-5-(trifluoromethyl)phenyl)-ethyl)-8-fluorospiro [chroman-2,4′-piperidin]-7-yl)-2-methylpropanoate]",36.3
5,"C[C@H](C(=O)O)[C@H](c1ccc2c(c1F)OC1(CC2)CCN([C@H](C)c2cc(C(F)(F)F)ccc2C(F)(F)F)CC1)C1CC1 [Example 6, (2S,3R)-3-(1′-((R)-1-(2,5-bis(trifluoromethyl)-phenyl)ethyl)-8-fluoro-spiro[chroman-2,4′-piperidin]-7-yl)-3-cyclo-propyl-2-methyl-propanoic acid]",12.1
6,Cc1cscc1-c1ccc(OC(F)(F)F)c(C(C)N2CCC3(CCc4ccc([C@H](C5CC5)[C@H](C)C(=O)O)cc4O3)CC2)c1 (stereo partly drawn) [Example 119],15
7,"C[C@H](C(=O)O)[C@H](c1ccc2c(c1)OC1(CC2)[C@@H]2CC[C@H]1CN([C@@H](C)c1cc(F)ccc1C(F)(F)F)C2)C1CC1 (single isomer, unassigned) [Example 85]",36.2
8,"Cc1noc(C)c1-c1ccc(OC(F)(F)F)c(C(C)N2CCC3(CCc4ccc([C@H](C5CC5)[C@H](C)C(=O)O)cc4O3)CC2)c1 (stereo partly drawn) [Example 121, (2S,3R)-3-cyclopropyl-3-(1′-(1-(5-(3,5-dimethylisoxazol-4-yl)-2-(trifluoro-methoxy)phenyl)ethyl)spiro [chroman-2,4′-piperidin]-7-yl)-2-methyl-propanoic acid]",110
9,"C[C@H](C(=O)O)[C@H](c1ccc2c(c1)OC1(CC2)CCC(N(C)c2ncccc2C(F)(F)F)CC1)C1CC1 (single isomer, unassigned) [Example 69]",0.416
10,"C[C@H](C(=O)O)[C@H](c1ccc2c(c1)OC1(CC2)CC(NCc2cc(C(F)(F)F)ccc2C(F)(F)F)C1)C1CC1 (single isomer, unassigned) [Example 96]",12.3
11,"Cc1ccc(-c2ccc(OC(F)(F)F)c(C(C)N3CCC4(CCc5ccc([C@H](C6CC6)[C@H](C)C(=O)O)cc5O4)CC3)c2)o1 (mixture of isomers) [Example 122, (2S,3R)-3-cyclopropyl-2-methyl-3-(1′-((RS)-1-(5-(5-methylfuran-2-yl)-2-(trifluoromethoxy)phenyl)eth-yl)spiro[chroman-2,4′-piperidin]-7-yl)propanoic acid]",42.5

# Second part, the compound after the results:
row,EC50 [nM],SMILES
1,2.51,"CCC(c1cc(C(F)(F)F)cc(Cl)c1F)N1CCC2(CCc3ccc([C@H](C4CC4)[C@H](C)C(=O)O)cc3O2)CC1 (stereo partly drawn) [Example 109, (2S,3R)-3-(1′-(1-(3-chloro-2-fluoro-5-(tri-fluromethyl)phenyl)propyl)spiro[chroman-2,4′-piperidin]-7-yl)-3-cyclopropyl-2-methylpropanoic acid]"
2,140,"COc1ncc(C(F)(F)F)cc1C(C)N1CCC2(CCc3ccc([C@H](C4CC4)[C@H](C)C(=O)O)cc3O2)CC1 (single isomer, unassigned) [Example 103, (2S,3R)-3-cyclopropyl-3-(1′-((S or R)-1-(2-methoxy-5-(trifluoro-methyl)pyridin-3-yl)ethyl)spiro[chroman-2,4′-piperidin]-7-yl)-2-methylpropanoic acid]"
3,0.527,"C[C@H](C(=O)O)[C@H](c1ccc2c(c1)OC1(CCCN([C@H](C)c3cc(C(F)(F)F)ccc3C(F)(F)F)CC1)CC2)C1CC1 (single isomer, unassigned) [Example 49, (2S,3R)-3-((R or S)-1-((R)-1-(2,5-bis (trifluoromethyl)phenyl)ethyl)spiro[azepane-4,2′-chroman]-7′-yl)-3-cyclopropyl-2-methylpropanoic acid]"
4,506,"C[C@H](C(=O)O)[C@H](c1ccc2c(c1)OC1(CC2)CCN(c2ccc3c(c2)c(C(F)(F)F)nn3C)CC1)C1CC1 [Example 38, (2S,3R)-3-cyclopropyl-2-methyl-3-(1′-(1-methyl-3-(trifluoromethyl)-1H-indazol-5-yl)spiro[chroman-2,4′-piperidin]-7-yl)propanoic acid]"
5,3.8,"C[C@H](C(=O)O)[C@H](c1ccc2c(c1)OC1(CC2)CCN(Cc2cc(C(F)(F)F)ccc2C(F)(F)F)CC1)C1CC1 [Example 129, Sodium (2S,3R)-3-(1′-(2,5-bis(trifluoromethyl)benzyl)spiro[chromane-2,4′-piperidin]-7-yl)-3-cyclopropyl-2-methylpropanoate]"
6,27.9,"C[C@H](C(=O)O)[C@H](c1ccc2c(c1)OC1(CC2)CCC(Nc2cc(C(F)(F)F)ccc2C(F)(F)F)CC1)C1CC1 (single isomer, unassigned) [Example 64]"
7,18.3,"C[C@H](C(=O)O)[C@H](c1ccc2c(c1)OC1(CC2)CCN(S(=O)(=O)c2cc(C(F)(F)F)ccc2Cl)CC1)C1CC1 [Example 25, (2S,3R)-3-(1′-((2-chloro-5-(trifluoromethyl)phenyl)sulfonyl)spiro[chroman-2,4′-piperidin]-7-yl)-3-cyclopropyl-2-methylpropanoic Acid]"
8,60.2,"CC(c1ncccc1C(F)(F)F)N1CCC2(CCc3ccc([C@H](C4CC4)[C@H](C)C(=O)O)cc3O2)CC1 (single isomer, unassigned) [Example 43, (2S,3R)-3-cyclopropyl-2-methyl-3-(1′-((S or R)-1-(3-(trifluoromethyl)-pyridin-2-yl)ethyl)spiro[chroman-2,4′-piperidin]-7-yl)propanoic Acid]"
9,1.12,"C[C@H](C(=O)O)[C@H](c1ccc2c(c1)OC1(CC2)CCC(Nc2cc(C(F)(F)F)ccc2C(F)(F)F)CC1)C1CC1 (single isomer, unassigned) [Example 67]"
10,50.4,"CC(c1nc(C(F)(F)F)ccc1Cl)N1CCC2(CCc3ccc([C@H](C4CC4)[C@H](C)C(=O)O)cc3O2)CC1 (single isomer, unassigned) [Example 30]"
